The text below walks through data of US6479524B1, “Substituted aryl and heteroaryl derivatives, their production and their use as medicines” (Boehringer Ingelheim Pharma KG, priority 1998, dated 2002).

The test concerns human citrated plasma. Kind of test: aPTT time prolongation (clotting of human citrated plasma, Biomatic B10 coagulometer). The test is classed as biochemical. Particulars: effective concentration at which the aPTT time is double compared with the control, 37° C. The method, then: were investigated for their effect on prolonging the aPTT time as follows:
plasma, from human citrated blood.
Diethylbarbiturate acetate buffer, Behring Werke, Marburg (ORWH 60/61),
Biomatic B10 coagulometer, Desaga, Wiesloch.
The aPTT time was determined using a Biomatic B10 coagulometer made by Messrs. Sarstedt.
The test substance was placed in the test tubes prescribed by the manufacturer with 0.1 ml of human citrated plasma and 0.1 ml of PTT reagent. The mixture was incubated for three minutes at 37° C. The clotting reaction was started by the addition of 0.1 ml of calcium solution. The time is measured using the apparatus from the addition of the calcium solution up to the clotting of the mixture. Mixtures to which 0.1 ml of DBA buffer were added were used as the controls.
As for `CCOC(=O)Cc1cc(C#CCNc2ccc(C(=N)N)cc2)c(C)cc1C(=O)N1CCCC1C` (racemic) [A, rac-4-{3-[5-ethoxycarbonylmethyl-2-methyl-4-(2-methyl-pyrrolidinocarbonyl)-phenyl]-propargylamino}benzamidine], the “aPTT time (ED200 in μM)” value turned out to be 0.23 µM.

Consider `Cc1cc(C(=O)N2CCCC2C)c(C)cc1C#CCNc1ccc(C(=N)N)cc1` (racemic) [B, rac-4-{3-[2,5-dimethyl-4-(2-methyl-pyrrolidinocarbonyl)-phenyl]-propargylamino}benzamidine], for which the “aPTT time (ED200 in μM)” value turned out to be 0.45 µM.

On to `Cc1cc(C(=O)C(C)C)c(C)cc1C#CCNc1ccc(C(=N)N)cc1` [C, 4-[3-(2,5-dimethyl-4-isopropylcarbonyl-phenyl)propargyl-amino]benzamidine], for which the “aPTT time (ED200 in μM)” value amounted to 0.97 µM.

Take `Cc1cc(C(=O)N(C)c2ccccn2)c(C)cc1C#CCNc1ccc(C(=N)N)cc1` [D, 4-{3-[2,5-dimethyl-4-(N-methyl-N-pyridin-2-yl-aminocarbonyl)-phenyl]propargylamino}benzamidine]: the “aPTT time (ED200 in μM)” value amounted to 0.23 µM.

With `Cc1cc(C(=O)N(C)c2ccccn2)c(C)cc1CCCNc1ccc(C(=N)N)cc1` [E, 4-{3-[2,5-dimethyl-4-(N-methyl-N-pyridin-2-yl-aminocarbonyl)-phenyl]prop-1-ylamino}benzamidine], the “aPTT time (ED200 in μM)” value stood at 0.69 µM.

For the molecule `Cc1cc(C#CCNc2ccc(C(=N)N)cc2)ccc1C(=O)N1CCCC1` [F, 4-[3-(3-methyl-4-pyrrolidinocarbonyl-phenyl)-propargyl-amino]-benzamidine], the “aPTT time (ED200 in μM)” value was determined as 0.54 µM.

Consider `CCN(CCC(=O)OC)C(=O)c1cc(C)c(C#CCNc2ccc(C(=N)N)cc2)cc1C` [G, 4-{3-[2,5-dimethyl-4-(N-(2-methoxycarbonyl-ethyl)-N-ethyl-carbonylamino)-phenyl]-propargylamino}benzamidine], for which the “aPTT time (ED200 in μM)” value amounted to 0.29 µM.

Take `Cc1cc(NC(=O)N(CC(=O)O)C(C)C)c(C)cc1C#CCNc1ccc(C(=N)N)cc1` [H, 4-{3-[2,5-dimethyl-4-(N-isopropyl-N-hydroxycarbonylmethyl-aminocarbonyl-amino)-phenyl]-propargylamino}-benzamidine]: the “aPTT time (ED200 in μM)” value was determined as 0.20 µM.

`Cc1cc(N(C(=O)CC(=O)O)C(C)C)c(C)cc1C#CCNc1ccc(C(=N)N)cc1` [I, 4-{3-[2,5-dimethyl-4-(N-isopropyl-N-hydroxycarbonylmethyl-carbonyl-amino)-phenyl]-propargylamino}-benzamidine]: the “aPTT time (ED200 in μM)” value was 0.45 µM.
